Assay results as given in patent US8710089B2, “Triazole derivatives as ghrelin analogue ligands of growth hormone secretagogue receptors” (Zentaris GmbH, priority 2005, dated 2014).

Molecular target: T1, human GHS-R 1a (Homo sapiens, UniProt Q92847)
T1 construct: expressed in transfected cells; host or cells: LLC PK-1 porcine renal epithelial cells (ECACC No. 86121112), isolated plasma membranes
Assay: GHS-R 1a receptor-ligand binding assay (membrane preparations from transfected LLC PK-1 cells)
Settings: displacement of 125I-His9-ghrelin (60 pM); membranes of LLC PK-1 cells transfected with human GHS-R 1a; mean of at least two independent experiments in triplicates
Experimental: (J. Med. […] Med. Chem. 2003, 46: 1191-1203), were incubated in homogenization buffer HB [50 mM Tris (pH 7.3), 5 mM MgCl2, 2.5 mM EDTA, and 30 μg/mL bacitracin (Sigma)] for 60 min at 25° C. (steady-state conditions) with 60 pM ^125I-[…]-ghrelin (Amersham) in the presence or absence of competing compounds (compounds of the invention). […] Nonspecific binding was defined using an excess (10^-6 M) of ghrelin. The binding reaction was stopped by addition of 4 mL of ice-cold HB followed by rapid filtration over Whatman GP/C filters presoaked with 0.5% polyethyleneimine to prevent excessive binding of radioligand to the filters. […] IC50 values given are the mean of at least two independent experiments performed in triplicates.

T1 sequence (Q92847 whole entry): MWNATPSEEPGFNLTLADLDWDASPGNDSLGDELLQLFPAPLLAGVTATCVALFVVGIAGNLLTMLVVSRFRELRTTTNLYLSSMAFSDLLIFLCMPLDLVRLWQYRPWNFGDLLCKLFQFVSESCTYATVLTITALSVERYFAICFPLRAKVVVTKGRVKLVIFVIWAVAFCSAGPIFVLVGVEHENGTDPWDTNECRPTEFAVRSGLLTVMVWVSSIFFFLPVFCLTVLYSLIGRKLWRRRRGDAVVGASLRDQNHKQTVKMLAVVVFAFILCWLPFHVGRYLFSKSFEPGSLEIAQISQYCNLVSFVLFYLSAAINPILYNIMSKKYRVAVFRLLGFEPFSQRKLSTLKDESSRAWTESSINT

IC50 [µM] | Structure (SMILES)
0.008 | COc1ccc(Cn2c(CCc3ccccc3)nnc2[C@@H](Cc2c[nH]c3ccccc23)NC(=O)c2cnccn2)c(OC)c1 [compound 66, (R)—N-(1-(4-(2,4-dimethoxybenzyl)-5-phenethyl-4H-1,2,4-triazol-3-yl)-2-(1H-indol-3-yl)ethyl)pyrazine-2-carboxamide]
0.011 | O=C(N[C@H](Cc1c[nH]c2ccccc12)c1nnc(CCc2c[nH]c3ccccc23)n1Cc1ccccc1)C1CCCNC1 (mixture of isomers) [compound 55, (R)—N-(1-(5-(2-(1H-indol-3-yl)ethyl)-4-benzyl-4H-1,2,4-triazol-3-yl)-2-(1H-indol-3-yl)ethyl)piperidine-3-carboxamide]
0.114 | CC(C)(N)C(=O)N[C@H](Cc1c[nH]c2ccccc12)c1nnc(CCc2ccccc2)n1Cc1ccccc1 [compound 173, N—((R)-1-(4-benzyl-5-phenethyl-4H-1,2,4-triazol-3-yl)-2-(1H-indol-3-yl)ethyl)-2-amino-2-methylpropanamide]
0.016 | COc1ccc(Cn2c(CCc3ccccc3)nnc2[C@@H](Cc2c[nH]c3ccccc23)NC(=O)[C@H]2CCCNC2)cc1 [compound 41, (S)—N—((R)-1-(4-(4-methoxybenzyl)-5-phenethyl-4H-1,2,4-triazol-3-yl)-2-(1H-indol-3-yl)ethyl)piperidine-3-carboxamide]
0.034 | COc1ccc(Cn2c(CCc3c[nH]c4ccccc34)nnc2[C@@H](Cc2c[nH]c3ccccc23)NC(=O)Cc2ccccn2)c(OC)c1 [compound 61, (R)—N-(1-(5-(2-(1H-indol-3-yl)ethyl)-4-(2,4-dimethoxybenzyl)-4H-1,2,4-triazol-3-yl)-2-(1H-indol-3-yl)ethyl)-2-(pyridin-2-yl)acetamide]
0.119 | COc1ccc(Cn2c(CCc3ccccc3)nnc2[C@@H](Cc2c[nH]c3ccccc23)NC(=O)c2ccncc2)cc1 [compound 77, (R)—N-(1-(4-(4-methoxybenzyl)-5-phenethyl-4H-1,2,4-triazol-3-yl)-2-(1H-indol-3-yl)ethyl)isonicotinamide]
0.0009 | COc1ccc(Cn2c(CCc3ccccc3)nnc2[C@@H](Cc2c[nH]c3ccccc23)NC(=O)C2CCNCC2)c(OC)c1 [compound 62, (R)—N-(1-(4-(2,4-dimethoxybenzyl)-5-phenethyl-4H-1,2,4-triazol-3-yl)-2-(1H-indol-3-yl)ethyl)piperidine-4-carboxamide]
0.106 | COc1ccc(Cn2c(CCc3c[nH]c4ccccc34)nnc2[C@@H](Cc2c[nH]c3ccccc23)NC(=O)Cc2ccncc2)cc1 [compound 136, N—((R)-1-(5-(2-(1H-indol-3-yl)ethyl)-4-(4-methoxybenzyl)-4H-1,2,4-triazol-3-yl)-2-(1H-indol-3-yl)ethyl)-2-(pyridin-4-yl)acetamide]
0.014 | CC(C)(N)C(=O)N[C@H](Cc1c[nH]c2ccccc12)c1nnc(CCCc2c[nH]c3ccccc23)n1CCc1ccccc1 [compound 3, (R)—N-(1-(5-(3-(1H-indol-3-yl)propyl)-4-phenethyl-4H-1,2,4-triazol-3-yl)-2-(1H-indol-3-yl)ethyl)-2-amino-2-methylpropanamide]
0.207 | O=C(N[C@H](Cc1c[nH]c2ccccc12)c1nnc(Cc2ccccc2)n1Cc1ccccn1)c1ccccn1 [compound 164, N—((R)-1-(5-benzyl-4-((pyridin-2-yl)methyl)-4H-1,2,4-triazol-3-yl)-2-(1H-indol-3-yl)ethyl)picolinamide]
0.012 | COc1ccc(Cn2c(CCc3ccccc3)nnc2[C@@H](Cc2c[nH]c3ccccc23)NC(=O)[C@@H]2CCCN2)cc1 [compound 46, (S)—N—((R)-1-(4-(4-methoxybenzyl)-5-phenethyl-4H-1,2,4-triazol-3-yl)-2-(1H-indol-3-yl)ethyl)pyrrolidine-2-carboxamide]
0.063 | COc1ccc(-n2c(CCc3ccccc3)nnc2[C@@H](Cc2c[nH]c3ccccc23)NC(=O)C2CCNCC2)c(OC)c1 [compound 163, N—((R)-2-(1H-indol-3-yl)-1-(4-(2,4-dimethoxyphenyl)-5-phenethyl-4H-1,2,4-triazol-3-yl)ethyl)piperidine-4-carboxamide]
0.136 | Cc1ccc(Cn2c(CCc3ccccc3)nnc2[C@@H](Cc2c[nH]c3ccccc23)NC(=O)C(C)(C)N)cc1 [compound 37, (R)—N-(1-(4-(4-methylbenzyl)-5-phenethyl-4H-1,2,4-triazol-3-yl)-2-(1H-indol-3-yl)ethyl)-2-amino-2-methylpropanamide]
0.089 | CCc1ccc(Cn2c(CCc3ccccc3)nnc2[C@@H](Cc2c[nH]c3ccccc23)NC(=O)c2cnccn2)cc1 [compound 85, (R)—N-(1-(4-(4-ethylbenzyl)-5-phenethyl-4H-1,2,4-triazol-3-yl)-2-(1H-indol-3-yl)ethyl)pyrazine-2-carboxamide]
0.126 | CC(C)(N)C(=O)N[C@H](Cc1c[nH]c2ccccc12)c1nnc(CCc2ccccc2)n1Cc1cccc2ccccc12 [compound 27, (R)—N-(2-(1H-indol-3-yl)-1-(4-(naphthalen-1-ylmethyl)-5-phenethyl-4H-1,2,4-triazol-3-yl)ethyl)-2-amino-2-methylpropanamide]
0.121 | COc1ccc(-n2c(CCc3ccccc3)nnc2[C@@H](Cc2c[nH]c3ccccc23)NC(=O)Cc2ccccn2)c(OC)c1 [compound 160, N—((R)-2-(1H-indol-3-yl)-1-(4-(2,4-dimethoxyphenyl)-5-phenethyl-4H-1,2,4-triazol-3-yl)ethyl)-2-(pyridin-2-yl)acetamide]
0.2 | CC(C)(N)C(=O)N[C@H](Cc1c[nH]c2ccccc12)c1nnc(CCc2c[nH]c3ccccc23)n1Cc1ccc(Br)cc1 [compound 92, (R)—N-(1-(5-(2-(1H-indol-3-yl)ethyl)-4-(4-bromobenzyl)-4H-1,2,4-triazol-3-yl)-2-(1H-indol-3-yl)ethyl)-2-amino-2-methylpropanamide]
0.029 | COc1ccc(Cn2c(CCc3ccccc3)nnc2[C@@H](Cc2c[nH]c3ccccc23)NC(=O)Cc2cccnc2)cc1 [compound 58, (R)—N-(1-(4-(4-methoxybenzyl)-5-phenethyl-4H-1,2,4-triazol-3-yl)-2-(1H-indol-3-yl)ethyl)-2-(pyridin-3-yl)acetamide]
0.062 | COc1ccc(Cn2c(CCc3ccccc3)nnc2[C@@H](Cc2c[nH]c3ccccc23)NC(=O)C(C)(C)N)c(OC)c1 [compound 179, N—((R)-1-(4-(2,4-dimethoxybenzyl)-5-phenethyl-4H-1,2,4-triazol-3-yl)-2-(1H-indol-3-yl)ethyl)-2-amino-2-methylpropanamide]
0.011 | COc1ccc(Cn2c(CCc3c[nH]c4ccccc34)nnc2[C@@H](Cc2c[nH]c3ccccc23)NC(=O)Cc2ccccn2)cc1 [compound 91, (R)—N-(1-(5-(2-(1H-indol-3-yl)ethyl)-4-(4-methoxybenzyl)-4H-1,2,4-triazol-3-yl)-2-(1H-indol-3-yl)ethyl)-2-(pyridin-2-yl)acetamide]
0.007 | COc1ccc(Cn2c(CCc3ccccc3)nnc2[C@@H](Cc2c[nH]c3ccccc23)NC(=O)[C@@H]2CCCNC2)cc1 [compound 42, (R)—N—((R)-1-(4-(4-methoxybenzyl)-5-phenethyl-4H-1,2,4-triazol-3-yl)-2-(1H-indol-3-yl)ethyl)piperidine-3-carboxamide]
0.0018 | COc1ccc(Cn2c(CCc3c[nH]c4ccccc34)nnc2[C@@H](Cc2c[nH]c3ccccc23)NC(=O)c2ccccn2)c(OC)c1 [compound 73, (R)—N-(1-(5-(2-(1H-indol-3-yl)ethyl)-4-(2,4-dimethoxybenzyl)-4H-1,2,4-triazol-3-yl)-2-(1H-indol-3-yl)ethyl)picolinamide]
0.14 | COc1ccc(Cn2c(CCc3ccccc3)nnc2[C@@H](Cc2c[nH]c3ccccc23)NC(=O)[C@H](C)N)cc1 [compound 57, (S)—N—((R)-1-(4-(4-methoxybenzyl)-5-phenethyl-4H-1,2,4-triazol-3-yl)-2-(1H-indol-3-yl)ethyl)-2-aminopropanamide]
0.029 | COc1ccc(Cn2c(CCc3c[nH]c4ccccc34)nnc2[C@@H](Cc2c[nH]c3ccccc23)NC(=O)[C@H]2CCCCN2)cc1 [compound 88, (R)—N—((R)-1-(5-(2-(1H-indol-3-yl)ethyl)-4-(4-methoxybenzyl)-4H-1,2,4-triazol-3-yl)-2-(1H-indol-3-yl)ethyl)piperidine-2-carboxamide]
0.14 | CC(C)(N)C(=O)N[C@H](Cc1c[nH]c2ccccc12)c1nnc(CCc2c[nH]c3ccccc23)n1-c1ccccc1 [compound 175, N—((R)-1-(5-(2-(1H-indol-3-yl)ethyl)-4-phenyl-4H-1,2,4-triazol-3-yl)-2-(1H-indol-3-yl)ethyl)-2-amino-2-methylpropanamide]
0.044 | CCc1ccc(Cn2c(CCc3ccccc3)nnc2[C@@H](Cc2c[nH]c3ccccc23)NC(=O)c2ccccn2)cc1 [compound 138, N—((R)-1-(4-(4-ethylbenzyl)-5-phenethyl-4H-1,2,4-triazol-3-yl)-2-(1H-indol-3-yl)ethyl)picolinamide]
0.03 | Cc1ccc(Cn2c(CCCc3ccccc3)nnc2[C@@H](Cc2c[nH]c3ccccc23)NC(=O)C(C)(C)N)cc1 [compound 33, (R)—N-(1-(4-(4-methylbenzyl)-5-(3-phenylpropyl)-4H-1,2,4-triazol-3-yl)-2-(1H-indol-3-yl)ethyl)-2-amino-2-methylpropanamide]

Structure (SMILES) | IC50 [µM]
COc1ccccc1Cn1c(CCc2c[nH]c3ccccc23)nnc1[C@@H](Cc1c[nH]c2ccccc12)NC(=O)C(C)(C)N [compound 25] | 0.096
